Data taken from patent US20190029257A1, “APPLICATION FOR HERBICIDE-TOLERANT PROTEIN” (BEIJING DABEINONG TECHNOLOGY GROUP CO., LTD., priority 2016, published 2019).

Tests used:
Test in all cases: Halosulfuron-methyl tolerance of maize plants (damage degree)
Type in all cases: in vivo
Details in all cases: 36 g ai/ha (4x Hal.); for Average damage % 3 DAT: 3 days after spraying; for Average damage % 7 DAT: 7 days after spraying; for Average damage % 14 DAT: 14 days after spraying; for Average damage % 21 DAT: 21 days after spraying
[1] = system: Zm chloroplastic ALT-1-02 maize plants
Excerpt: (§1) The herbicide tolerance effects of Zm cytoplasmic ALT-1-02 maize plants, Zm chloroplastic ALT-1-02 maize plants, Zm cytoplasmic ALT-2-02 maize plants, Zm chloroplastic ALT-2-02 maize plants, Zm cytoplasmic ALT-3-02 maize plants, Zm chloroplastic ALT-3-02 maize plants and wild-type maize plants on halosulfuron-methyl were detected (at V3-V4 stage), respectively.
(§2) Zm cytoplasmic ALT-1-02 maize plants, Zm chloroplastic ALT-1-02 maize plants, Zm cytoplasmic ALT-2-02 maize plants, Zm chloroplastic ALT-2-02 maize plants, Zm cytoplasmic ALT-3-02 maize plants, Zm chloroplastic ALT-3-02 maize plants and wild-type maize plants were respectively taken and sprayed with halosulfuron-methyl (36 g ai/ha, 4-fold field concentration) and a blank solvent (water). The damage degree caused by the herbicide was measured for each plant according to the plant growth status 3 days after spraying (3 DAT), 7 days after spraying (7 DAT), 14 days after spraying (14 DAT) and 21 days after spraying (21 DAT), respectively: considering a growth status equivalent to that of the untreated plants as having a damage degree of 0%; considering conditions of leaves being partially chlorotic and yellow but substantially not affecting the plant normal growth as having a damage degree of 50%; and considering the whole plant being purple and dying as having a damage degree of 100%. There were 2 strains in Zm cytoplasmic ALT-1-02 maize plants in total (S13 and S14), 2 strains in Zm chloroplastic ALT-1-02 maize plants in total (S15 and S16), 2 strains in Zm cytoplasmic ALT-2-02 maize plants in total (S17 and S18), 2 strains in Zm chloroplastic ALT-2-02 maize plants in total (S19 and S20), 2 strains in Zm cytoplasmic ALT-3-02 maize plants in total (S21 and S22), 2 strains in Zm chloroplastic ALT-3-02 maize plants in total (S23 and S24), and 1 strain in wild- type maize plants (CK2) in total; and 10-15 plants were selected from each strain and tested.

[2] = system: Zm chloroplastic ALT-2-02 maize plants
Excerpt: as §1, §2

[3] = system: Zm chloroplastic ALT-3-02 maize plants
Excerpt: as §1, §2

[4] = system: Zm cytoplasmic ALT-1-02 maize plants
Excerpt: as §1, §2

[5] = system: Zm cytoplasmic ALT-2-02 maize plants
Excerpt: as §1, §2

[6] = system: Zm cytoplasmic ALT-3-02 maize plants
Excerpt: as §1, §2

COC(=O)c1c(Cl)nn(C)c1S(=O)(=O)NC(=O)Nc1nc(OC)cc(OC)n1 [halosulfuron-methyl, 3-chlorine-5-(4,6-dimethoxypyrimidine-2-aminocarbonylaminosulphonyl)-1-methylpyrazole-4-carboxylic acid methyl ester]
4%: Average damage % 7 DAT ([6]; strain S21)
0%: Average damage % 3 DAT ([1]; strain S15) | Average damage % 7 DAT ([1]; strain S15) | Average damage % 14 DAT ([1]; strain S15) | Average damage % 21 DAT ([1]; strain S15) | Average damage % 3 DAT ([1]; strain S16) | Average damage % 7 DAT ([1]; strain S16) | Average damage % 14 DAT ([1]; strain S16) | Average damage % 21 DAT ([1]; strain S16) | Average damage % 3 DAT ([2]; strain S19) | Average damage % 7 DAT ([2]; strain S19) | Average damage % 14 DAT ([2]; strain S19) | Average damage % 21 DAT ([2]; strain S19) | Average damage % 3 DAT ([2]; strain S20) | Average damage % 7 DAT ([2]; strain S20) | Average damage % 14 DAT ([2]; strain S20) | Average damage % 21 DAT ([2]; strain S20) | Average damage % 3 DAT ([3]; strain S23) | Average damage % 7 DAT ([3]; strain S23) | Average damage % 14 DAT ([3]; strain S23) | Average damage % 21 DAT ([3]; strain S23) | Average damage % 3 DAT ([3]; strain S24) | Average damage % 7 DAT ([3]; strain S24) | Average damage % 14 DAT ([3]; strain S24) | Average damage % 21 DAT ([3]; strain S24) | Average damage % 3 DAT ([4]; strain S13) | Average damage % 14 DAT ([4]; strain S13) | Average damage % 21 DAT ([4]; strain S13) | Average damage % 3 DAT ([4]; strain S14) | Average damage % 14 DAT ([4]; strain S14) | Average damage % 21 DAT ([4]; strain S14) | Average damage % 3 DAT ([5]; strain S17) | Average damage % 14 DAT ([5]; strain S17) | Average damage % 21 DAT ([5]; strain S17) | Average damage % 3 DAT ([5]; strain S18) | Average damage % 14 DAT ([5]; strain S18) | Average damage % 21 DAT ([5]; strain S18) | Average damage % 3 DAT ([6]; strain S21) | Average damage % 14 DAT ([6]; strain S21) | Average damage % 21 DAT ([6]; strain S21) | Average damage % 3 DAT ([6]; strain S22) | Average damage % 14 DAT ([6]; strain S22) | Average damage % 21 DAT ([6]; strain S22)
2%: Average damage % 7 DAT ([4]; strain S13) | Average damage % 7 DAT ([5]; strain S18)
5%: Average damage % 7 DAT ([6]; strain S22)
3%: Average damage % 7 DAT ([4]; strain S14) | Average damage % 7 DAT ([5]; strain S17)
